Source: US10035806B2, “Derivatized corroles and metallocorroles and their use as imaging and therapeutic agents” (CALIFORNIA INSTITUTE OF TECHNOLOGY, priority 2015, dated 2018)
Values joined by “and” are separate entries in the source; they are usually repeats but may differ in a detail not shown here. Equal entries are not always repeated.

Columns and labels:
MDA-MB-231 cells = conditions: literature values, read-out: IC50 reported for cisplatin; cited from earlier work
MDA-MB-231 = experiment: MTS assay (cytotoxicity); format: cell-based, human; conditions: MDA-MB-231 (breast), 72 h exposure in the dark, mean of three experiments
Text: (§1) Reagents were obtained from the indicated suppliers: HBSS without phenol red and trypsin-EDTA (0.25%), Invitrogen/Gibco; PBS, Mediatech; 4′,6-diamidino-2-phenylindole dihydrochloride (DAPI) and DMSO, Sigma-Aldrich; paraformaldehyde, Electron Microscopy Sciences; WGA, Alexa Fluor 488 conjugate, Invitrogen/Molecular Probes; and ProLong Gold Antifade Mountant with DAPI, Life Technologies. Human Cancer Cell Lines. Four cell lines from the NCI60 cell panel (Shoemaker RH (2006) The NCI60 human tumour cell line anticancer drug screen. Nat Rev Cancer 6(10):813-823) representing four distinct tumor types were used in this study: DU-145, prostate; MDA-MB-231, breast; SK-MEL-28, melanoma; and OVCAR-3, ovarian. Cells were grown in RPMI 1640 cell culture medium (Mediatech) containing 2 mM L-glutamine, supplemented with 10% FBS (Omega Scientific), and maintained at 37° C. under 5% CO2 in a humidified incubator.
(§2) At the time of drug treatment, stock solutions of 1-4 were diluted to 10-fold the desired final test concentrations with RPMI medium 1640. Aliquots of […] of these diluted solutions were added to the appropriate microtiter wells containing 90 μL of medium, resulting in the required final drug concentrations (eight concentrations per compound, ranging from 0.3 to 600 μM). The final concentration of DMSO in test culture was <1%. […] Following 72 h of exposure at 37° C., cell viability was determined using the MTS assay (CellTiter 96 Aqueous One Cell Proliferation Assay; Promega) according to the manufacturer's instructions. Absorbances were measured using a microplate reader (Synergy 4; Biotek Instruments) at 490 nm. Experiments were performed in triplicate and each dose-response curve represents the mean of three or more independent experiments. Spectrophotometric data were analyzed by sigmoid dose-response, nonlinear regression analysis; the IC50, Emax values, and associated SE were calculated using GraphPad Prism 6 (GraphPad Software).
(§3) The effects of bis-sulfonate, carboxylate, and aminocaproate ring substituents on gallium corrole cytotoxicities were examined using four human cancer cell lines, representing tumors of different origin selected based on previously described sensitivities.

OVCAR-3 = experiment: MTS assay (cytotoxicity); format: cell-based, human; conditions: OVCAR-3 (ovarian), 72 h exposure in the dark, mean of three experiments
Text: as §1, §2, §3

SK-MEL-28 = experiment: MTS assay (cytotoxicity); format: cell-based, human; conditions: SK-MEL-28 (melanoma), 72 h exposure in the dark, mean of three experiments
Text: as §1, §2, §3

DU-145 = experiment: MTS assay (cytotoxicity); format: cell-based, human; conditions: for IC50: DU-145 (prostate), 72 h exposure in the dark, MTS assay, mean of three experiments
Text: as §1, §2, §3

[1] = tested on: DU-145, SK-MEL-28, MDA-MB-231, OVCAR-3; experiment: Uptake of gallium corroles (ImageXpress confocal), cell lines taken together; format: cell-based, human; conditions: 30 μM
Description: The intracellular uptake of gallium corroles was quantified using the ImageXpressultra laser point-scanning confocal microscope (Molecular Devices). The fluorescence image acquisition settings were as previously reported (Lim P, et al. (2012), Chem Res Toxicol 25(2):400-409.). Cells (DU-145, SK-MEL-28, MDA-MB-231, and OVCAR-3) were seeded in 96-well dishes (8×10^3 cells per well in 0.1 mL) and allowed to attach overnight. Complex 1, 2, 3, or 4 was added directly to cell media at 30 μM final concentration or media only control, and incubated for 0.25, 1, 3, or 24 h at 37° C. in the dark under a 5% CO2 atmosphere. Cells were fixed and labeled in situ with WGA-Alexa Fluor 488 conjugate and DAPI to allow for the identification of cell boundary and nucleus, respectively. The quantification of blue (DAPI) fluorescence signals in each sample yielded the total number of cells in that population. Corresponding determination of red (corrole) fluorescence within each cell, corrected for background fluorescence from untreated cells, provided the number of cells containing corroles. For each corrole concentration at various time points, fluorescence data were obtained for 1,000-22,000 individual cells. Data acquisitions and analyses were performed as described (Lim P, et al. (2012), Chem Res Toxicol 25(2):400-409). The percentage of corrole-positive cells and the median fluorescence intensity (median RFU) for each treatment were plotted in a three-axis graph using Microsoft Office Excel 2007 (Microsoft Corporation).
To quantify the kinetics of intracellular uptake and accumulation of each derivative, ImageXpressultra, a laser point-scanning confocal microscope, was used for analyses. […] Cells were incubated at 37° C. in the dark for 0.25, 1, 3, or 24 h. […] Within 15 min, Complex 4 fluorescence was observable in ˜80% of ovarian cancer cells, 97% of breast cancer cells, and >99% of prostate cancer and melanoma cells, whereas up to 3 and 24 h were required to label >80% of cells from all four cancer lines with Complexes 3 and 2, respectively. […]

human cancer cells = conditions: previous work, cited from earlier work
murine model animals = conditions: previous work; cited from earlier work

Compound | IC50 (MDA-MB-231) | IC50 (OVCAR-3) | IC50 (SK-MEL-28) | IC50 (DU-145) | effect of pyridinium substitution (in place of bis-sulfonic acids) on uptake, activity, toxicity (human cancer cells) | further results
N.N.[Cl][Pt][Cl] [cisplatin] | – | – | – | – | – | IC50 (MDA-MB-231 cells): 46.4 µM and 39 µM
O=C(O)C1=CC2=[N+]3C1=C(c1c(F)c(F)c(F)c(F)c1F)c1ccc4[n]1[Ga-]31[n]3c(ccc32)C(c2c(F)c(F)c(F)c(F)c2F)=c2ccc([n]21)=C4c1c(F)c(F)c(F)c(F)c1F (stereo not shown) [Complex 4] | 15.3 µM | 11.1 µM | 4.8 µM | 12.9 µM | – | IC50 lower than bis-sulfonated Complex 2 (DU-145; DU-145, 72 h, MTS): −12 fold
Fc1c(F)c(F)c(C2=C3C=CC4=[N+]3[Ga-]35[n]6c2ccc6C(c2c(F)c(F)c(F)c(F)c2F)=c2ccc([n]23)=C(c2c(F)c(F)c(F)c(F)c2F)c2ccc4[n]25)c(F)c1F (stereo not shown) [Complex 1, gallium(III) tris(pentafluorophenyl)corrole] | 101 µM | 58.1 µM | 61.3 µM | 135 µM | – | time required for significant uptake (≥80% cells) ([1]; melanoma, ovarian, and breast cancer cell lines): 24 h
O=S(=O)(O)C1=CC2=C(c3c(F)c(F)c(F)c(F)c3F)c3ccc4[n]3[Ga-]35[n]6c(cc(S(=O)(=O)O)c6C(c6c(F)c(F)c(F)c(F)c6F)=c6ccc([n]63)=C4c3c(F)c(F)c(F)c(F)c3F)C1=[N+]25 (stereo not shown) [Complex 2] | 129 µM | 274 µM | 131 µM | 159 µM | – | IC50 (DU-145; listed as 2): 159 µM; antitumor activity in vitro (human cancer cells; human cancer cells): potent antitumor activity; mechanism of cytotoxicity: cell cycle effect (human cancer cells; numerous cancer cell lines in vitro): induce cell cycle arrest at late M phase; time required to label >80% of cells from all four cancer lines ([1]; 37° C., dark): ≤ 24 h; antitumor activity in vivo (murine model animals): potent antitumor activity
C[n+]1ccccc1C1=C2C=CC3=[N+]2[Mn-]24[n]5c1ccc5C(c1cccc[n+]1C)=c1ccc([n]12)=C(c1cccc[n+]1C)c1ccc3[n]14 (stereo not shown) [Complex 6] | – | – | – | – | completely ablated toxicity | –
COc1ccc(C2=c3ccc4[n]3[Mn-]35[n]6c(ccc62)C(c2cc[n+](C)cc2)=C2C=CC(=[N+]23)c2ccc([n]25)C=4c2cc[n+](C)cc2)cc1 (stereo not shown) [Complex 5] | – | – | – | – | improve uptake and activity | –
